Experimental data published in ChEMBL document CHEMBL1128428, “Inhibition of matrix metalloproteinases by hydroxamates containing heteroatom-based modifications of the P1' group” (J Med Chem, 1995).

target: Neutrophil collagenase (Homo sapiens, UniProt P22894)
Sequence (P22894 whole entry): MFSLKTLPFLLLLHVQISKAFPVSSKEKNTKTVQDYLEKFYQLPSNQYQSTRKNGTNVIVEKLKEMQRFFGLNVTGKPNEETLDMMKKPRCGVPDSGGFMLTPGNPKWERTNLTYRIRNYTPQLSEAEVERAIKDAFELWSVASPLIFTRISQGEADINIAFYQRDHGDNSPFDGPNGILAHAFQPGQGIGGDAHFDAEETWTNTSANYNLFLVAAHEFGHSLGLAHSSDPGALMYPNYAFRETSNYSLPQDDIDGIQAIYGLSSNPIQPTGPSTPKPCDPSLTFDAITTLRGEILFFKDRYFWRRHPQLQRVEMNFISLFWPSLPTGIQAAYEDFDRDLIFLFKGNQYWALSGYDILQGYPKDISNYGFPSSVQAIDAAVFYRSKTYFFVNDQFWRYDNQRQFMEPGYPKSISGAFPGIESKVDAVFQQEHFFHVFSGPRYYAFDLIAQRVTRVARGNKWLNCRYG

Ki | SMILES
12 nM | CCCC(=O)NCCCC[C@H](CC(=O)NO)C(=O)N[C@@H](Cc1ccccc1)C(=O)NC
32 nM | CNC(=O)[C@H](Cc1ccccc1)NC(=O)[C@H](CCCC(=O)NCCc1ccccc1)CC(=O)NO
< 2 nM | CNC(=O)[C@H](Cc1ccccc1)NC(=O)[C@H](CCCCOc1ccccc1)CC(=O)NO
< 2 nM | CNC(=O)[C@H](Cc1ccccc1)NC(=O)[C@H](CCCCCOc1ccccc1)CC(=O)NO
30 nM | CNC(=O)[C@H](Cc1ccccc1)NC(=O)[C@H](CCCC(=O)NCc1ccccc1)CC(=O)NO
2 nM | CCCNC(=O)CCC[C@H](CC(=O)NO)C(=O)N[C@@H](Cc1ccccc1)C(=O)NC
2 nM | CNC(=O)[C@H](Cc1ccccc1)NC(=O)[C@H](CCCCCOCc1ccccc1)CC(=O)NO
4 nM | CNC(=O)[C@H](Cc1ccccc1)NC(=O)[C@H](CCCCCO)CC(=O)NO

target: T1, Interstitial collagenase (Homo sapiens, UniProt P03956)
T1 sequence (P03956 whole entry): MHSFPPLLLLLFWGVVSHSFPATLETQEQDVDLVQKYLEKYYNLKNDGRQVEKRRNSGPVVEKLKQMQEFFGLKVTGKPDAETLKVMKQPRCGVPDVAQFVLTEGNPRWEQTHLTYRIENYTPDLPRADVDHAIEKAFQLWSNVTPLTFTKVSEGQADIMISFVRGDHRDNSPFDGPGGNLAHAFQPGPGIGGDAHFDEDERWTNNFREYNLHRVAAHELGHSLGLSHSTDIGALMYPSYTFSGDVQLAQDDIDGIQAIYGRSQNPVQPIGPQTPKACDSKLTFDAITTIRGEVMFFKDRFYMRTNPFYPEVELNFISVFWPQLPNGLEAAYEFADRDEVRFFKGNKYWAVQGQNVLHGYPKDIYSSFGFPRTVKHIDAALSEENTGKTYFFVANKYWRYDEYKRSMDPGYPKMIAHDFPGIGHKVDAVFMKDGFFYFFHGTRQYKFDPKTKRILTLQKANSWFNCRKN

Ki | SMILES
64 nM | CNC(=O)[C@H](Cc1ccccc1)NC(=O)[C@H](CCCCO)CC(=O)NO
3 nM | CNC(=O)[C@@H](NC(=O)[C@H](CCCCOc1ccccc1)CC(=O)NO)C(C)(C)C
16 nM | CNC(=O)[C@@H](NC(=O)[C@H](CCCCOc1cccc(C)c1)CC(=O)NO)C(C)(C)C
95 nM | CNC(=O)[C@@H](NC(=O)[C@H](CCCCOc1ccc(Cl)c(Cl)c1)CC(=O)NO)C(C)(C)C
80 nM | CC(C)(C)[C@H](NC(=O)[C@H](CCCCOc1ccc(Cl)cc1)CC(=O)NO)C(=O)NCCc1ccccn1
62 nM | CC(C)(C)[C@H](NC(=O)[C@H](CCCCOc1ccccc1)CC(=O)NO)C(=O)NCCCC(=O)O
61 nM | CC(C)(C)[C@H](NC(=O)[C@H](CCCCOc1ccc(Cl)cc1)CC(=O)NO)C(=O)NCCc1ccc(S(N)(=O)=O)cc1
1300 nM | CNC(=O)[C@H](Cc1ccccc1)NC(=O)[C@H](CCCC(=O)NCCc1ccccc1)CC(=O)NO
140 nM | CC(C)(C)[C@H](NC(=O)[C@H](CCCCOc1ccccc1)CC(=O)NO)C(=O)NCCC(=O)O
9600 nM | CNC(=O)[C@H](Cc1ccccc1)NC(=O)[C@H](CCCC(=O)NCc1ccccc1)CC(=O)NO
< 1 nM | CNC(=O)[C@@H](NC(=O)[C@H](CCCCOc1ccc(OC)cc1)CC(=O)NO)C(C)(C)C
72 nM | CNC(=O)[C@@H](NC(=O)[C@H](CCCCOc1cccc(OC)c1)CC(=O)NO)C(C)(C)C
580 nM | CC(C)(C)[C@H](NC(=O)[C@H](CCCCOc1ccc(Cl)cc1)CC(=O)NO)C(=O)NCCc1ccccc1
170 nM | CCCc1ccc(OCCCC[C@H](CC(=O)NO)C(=O)N[C@H](C(=O)NC)C(C)(C)C)cc1
80 nM | CC(C)(C)[C@H](NC(=O)[C@H](CCCCOc1ccc(Cl)cc1)CC(=O)NO)C(=O)NCCN1CCCC1
10 nM | CC(C)(C)[C@H](NC(=O)[C@H](CCCCOc1ccc(Cl)cc1)CC(=O)NO)C(=O)NCCCN1CCOCC1
31 nM | CNC(=O)[C@H](Cc1ccccc1)NC(=O)[C@H](CCCCCO)CC(=O)NO
350 nM | CNC(=O)[C@@H](NC(=O)[C@H](CCCCOc1ccc(C(C)(C)C)cc1)CC(=O)NO)C(C)(C)C
30 nM | CNC(=O)[C@@H](NC(=O)[C@H](CCCCOc1ccc(C(C)C)cc1)CC(=O)NO)C(C)(C)C
11 nM | CNC(=O)[C@@H](NC(=O)[C@H](CCCCOc1ccc(F)cc1)CC(=O)NO)C(C)(C)C
1900 nM | CCCCCc1ccc(OCCCC[C@H](CC(=O)NO)C(=O)N[C@H](C(=O)NC)C(C)(C)C)cc1
143 nM | CNC(=O)[C@@H](NC(=O)[C@H](CCCCOc1cccc(Cl)c1)CC(=O)NO)C(C)(C)C
